Experimental data as given in paper PMC8808171, “Nonselective TRPC channel inhibition and suppression of aminoglycoside-induced premature termination codon readthrough by the small molecule AC1903” (The Journal of Biological Chemistry, 2022).

Tests used:
TRPC3:C3 = target: T1, TRPC3:C3 (Homo sapiens, UniProt Q13507); assay: [Ca2+]i recordings (Fura-2), TRPC3:C3 in HEK T-REx cells; format: cell-based
T1 construct: expressed in transfected cells
Method: Based on the findings described above, we wondered whether AC1903—which is typically used as a TRPC5 inhibitor at concentrations of 30–100 μM in cellular assays ([29], [56])—might have limited selectivity for TRPC5 channels and whether its effect on intracellular G418 levels and PTC readthrough might be the consequence of inhibition of other or multiple targets. All well-characterized TRPC channel inhibitors reported to date modulate multiple TRP(C) channels ([34], [35], [36]). […] Because limited data for the selectivity of AC1903 are available in the public domain, we decided to profile AC1903 against a selection of calcium-permeable cation channels by intracellular calcium ([Ca^2+]i) recordings using well-characterized cell lines and TRP channel activators ([46], [57], [58]), and the Ca^2+ indicator Fura-2. In these assays, cells (HEK 293, HEK T-REx, or CHO) overexpressing the relevant ion channel protein and loaded with Fura-2 AM (a cell-permeable precursor of Fura-2) were preincubated with various concentrations of AC1903 or vehicle (DMSO) for 30 min. Then, changes in ratiometric fluorescence (from background) were recorded upon addition of the respective ion channel activator. […]

WT HEK 293 cells = assay: Carbachol-mediated [Ca2+]i response in WT HEK 293 cells; format: cell-based; details: carbachol (100 μM), n/N = 1/6
Method: To test the effect of AC1903 on TRPC4 channels, we initially attempted to use carbachol to activate TRPC4:C4 channels, in line with patch-clamp experiments reported by Zhou et al. ([29]). […] Therefore, we used the selective TRPC1/4/5 activator EA and the physiological TRPC4/5 activator S1P instead.
[Ca^2+]i recordings were carried out using the ratiometric Ca^2+ dye Fura-2. 24 h prior to experiments, cells were plated either onto black, clear bottom poly-D-lysine-coated 96-well plates (HEK cells) or clear 96-well plates (A498 cells, CHO cells) at 50,000 cells per well (HEK cells) or 20,000 cells per well (A498 cells, CHO cells). For tetracycline-inducible HEK T-REx cells, protein expression was induced with tetracycline (TRPC channels: 1 μg ml^−1; hPiezo1: 100 ng ml^−1) at this point. To load cells with the Fura-2 dye, media was removed and cells were incubated with standard bath solution (SBS) containing 2 μM Fura-2 acetoxymethyl ester (Fura-2 AM; Thermo Fisher Scientific) and 0.01% pluronic acid for 1 h at 37 °C. SBS contained (in mM): NaCl 130, KCl 5, glucose 8, HEPES 10, MgCl2 1.2 and CaCl2 1.5. After this incubation, cells were washed twice with fresh SBS. […]
Inhibition of G418-induced premature stop codon readthrough
Figure S7. […] Responses were calculated at 70-80 s compared to [Ca2+]i at baseline (0-55 s). […]

T1 sequence (Q13507 whole entry): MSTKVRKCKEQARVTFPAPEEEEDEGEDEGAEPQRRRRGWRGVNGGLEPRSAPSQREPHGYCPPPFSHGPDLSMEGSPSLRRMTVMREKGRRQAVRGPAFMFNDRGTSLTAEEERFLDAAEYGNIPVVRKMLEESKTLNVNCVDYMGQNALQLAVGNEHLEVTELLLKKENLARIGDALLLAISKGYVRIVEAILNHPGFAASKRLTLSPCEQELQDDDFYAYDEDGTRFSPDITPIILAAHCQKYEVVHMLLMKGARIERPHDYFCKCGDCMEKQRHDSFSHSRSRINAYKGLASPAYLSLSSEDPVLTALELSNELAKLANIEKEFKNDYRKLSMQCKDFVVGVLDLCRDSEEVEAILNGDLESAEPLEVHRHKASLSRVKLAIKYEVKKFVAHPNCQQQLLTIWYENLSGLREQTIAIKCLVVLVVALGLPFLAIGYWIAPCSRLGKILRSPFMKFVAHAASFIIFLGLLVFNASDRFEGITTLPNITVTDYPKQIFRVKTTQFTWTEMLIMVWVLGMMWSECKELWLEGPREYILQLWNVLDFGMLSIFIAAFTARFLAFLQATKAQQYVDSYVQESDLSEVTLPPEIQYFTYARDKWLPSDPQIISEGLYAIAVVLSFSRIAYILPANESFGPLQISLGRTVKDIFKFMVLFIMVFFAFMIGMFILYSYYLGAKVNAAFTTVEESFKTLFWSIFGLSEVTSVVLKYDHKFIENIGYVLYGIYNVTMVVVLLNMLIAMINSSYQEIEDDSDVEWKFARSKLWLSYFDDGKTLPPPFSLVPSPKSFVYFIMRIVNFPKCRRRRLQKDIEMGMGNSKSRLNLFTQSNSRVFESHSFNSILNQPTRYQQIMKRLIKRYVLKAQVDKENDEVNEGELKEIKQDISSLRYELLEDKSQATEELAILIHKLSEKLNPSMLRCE

IC50 (TRPC3:C3; HEK T-REx, activator OAG (100 μM)): 5.2 µM
Hill slope (TRPC3:C3; activator OAG): -1.4
Compound: c1ccc(Cn2c(NCc3ccco3)nc3ccccc32)cc1 [AC1903]
IC50 (WT HEK 293 cells): 20 µM
